From BindingDB's records for doi:10.1021/jm701275z (University of Athens, 2008)

biological target: Angiotensin-converting enzyme (Homo sapiens, UniProt P12821); assay: Enzyme Inhibition Assay; details: pH 6.8; 25 °C
Protocol: Continuous assays were performed by recording the fluorescence increase at 405 nm (excitation@ 320 nm) induced by the cleavage of fluorogenic substrate, using 96-well nonbinding surface plates. Fluorescence signals were monitored using a Fluoroscan Ascent photon counter spectrophotometer (Thermo-Labsystems, Courtaboeuf, France) equipped with a temperature control device and a plate shaker. The substrate and enzyme concentrations for the experiments were chosen so as to remain well below 10% of substrate utilization and to observe initial rates. For each inhibitor, percentage inhibition was determined in triplicate experiments at five inhibitor concentrations, chosen to observe a 20-80% range of inhibition. Ki values were determined using the method proposed by Horovitz and Leviski, as described in Proc. Natl. Acad. Sci. U.S.A. 1987, 84, 6654.

Sequence of Angiotensin-converting enzyme (P12821 whole entry): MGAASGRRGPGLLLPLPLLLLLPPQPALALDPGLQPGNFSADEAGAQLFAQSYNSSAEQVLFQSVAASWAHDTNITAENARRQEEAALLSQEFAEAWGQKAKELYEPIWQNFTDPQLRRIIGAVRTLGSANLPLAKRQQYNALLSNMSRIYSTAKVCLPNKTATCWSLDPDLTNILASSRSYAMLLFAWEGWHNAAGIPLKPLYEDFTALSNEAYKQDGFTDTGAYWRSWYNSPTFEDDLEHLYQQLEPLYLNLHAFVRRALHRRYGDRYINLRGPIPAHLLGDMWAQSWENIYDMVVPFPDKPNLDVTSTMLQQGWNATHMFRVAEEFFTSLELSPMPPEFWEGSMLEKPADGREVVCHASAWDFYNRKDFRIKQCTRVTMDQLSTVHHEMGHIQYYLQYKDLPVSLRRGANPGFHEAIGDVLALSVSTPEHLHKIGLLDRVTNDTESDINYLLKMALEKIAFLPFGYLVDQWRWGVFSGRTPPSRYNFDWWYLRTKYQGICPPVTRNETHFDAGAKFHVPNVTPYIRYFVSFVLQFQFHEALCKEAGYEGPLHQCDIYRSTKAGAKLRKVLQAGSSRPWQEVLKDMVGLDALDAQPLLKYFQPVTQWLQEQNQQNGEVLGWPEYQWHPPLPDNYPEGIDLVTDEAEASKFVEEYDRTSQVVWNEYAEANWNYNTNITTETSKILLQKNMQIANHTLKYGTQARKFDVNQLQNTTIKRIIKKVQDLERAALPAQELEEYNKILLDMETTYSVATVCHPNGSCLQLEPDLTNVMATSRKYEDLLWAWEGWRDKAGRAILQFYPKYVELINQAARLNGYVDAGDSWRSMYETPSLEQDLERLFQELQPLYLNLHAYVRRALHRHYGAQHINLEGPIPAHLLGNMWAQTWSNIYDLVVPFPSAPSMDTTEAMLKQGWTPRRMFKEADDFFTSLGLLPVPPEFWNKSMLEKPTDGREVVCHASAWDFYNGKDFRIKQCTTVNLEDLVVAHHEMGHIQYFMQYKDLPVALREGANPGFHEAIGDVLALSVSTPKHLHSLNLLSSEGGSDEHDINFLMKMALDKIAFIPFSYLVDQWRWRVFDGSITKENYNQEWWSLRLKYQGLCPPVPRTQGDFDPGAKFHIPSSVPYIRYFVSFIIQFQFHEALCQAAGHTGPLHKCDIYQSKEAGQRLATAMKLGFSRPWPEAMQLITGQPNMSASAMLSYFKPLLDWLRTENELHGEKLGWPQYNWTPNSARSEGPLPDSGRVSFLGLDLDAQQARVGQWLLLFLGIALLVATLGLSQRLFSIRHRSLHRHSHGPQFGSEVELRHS

| Ki [µM] | SMILES |
| --- | --- |
| > 10 | CC(=O)NC(Cc1c[nH]cn1)C(=O)N1CCCC1P(=O)(O)CC(Cc1cc(-c2ccccc2)no1)C(=O)O (centres undefined) [3-({1-[2-acetamido-3-(1H-imidazol-4-yl)propanoyl]pyrrolidin-2-yl}(hydroxy)phosphoryl)-2-[(3-phenyl-1,2-oxazol-5-yl)methyl]propanoic acid] |
| > 10 | CC(=O)NC(CC(C)C)C(=O)N1CCCC1P(=O)(O)CC(Cc1cc(-c2ccccc2)no1)C(=O)O (centres undefined) [3-{[1-(2-acetamido-4-methylpentanoyl)pyrrolidin-2-yl](hydroxy)phosphoryl}-2-[(3-phenyl-1,2-oxazol-5-yl)methyl]propanoic acid] |
| > 10 | CC(=O)NC(CC(C)C)C(=O)N1CCCC1P(=O)(O)CC(Cc1ccccc1)C(=O)O (centres undefined) [The second fraction of the HPLC chromatogram.] |
| > 10 | CC(=O)NC(Cc1c[nH]cn1)C(=O)N1CCCC1P(=O)(O)CC(Cc1ccccc1)C(=O)O (centres undefined) [The second fraction of the HPLC chromatogram.] |
